Test results: patent US20250002455A1, “NEW N-PHENYLPYRROLAMIDE INHIBITORS OF DNA GYRASE AND TOPOISOMERASE IV WITH ANTIBACTERIAL ACTIVITY” (priority 2020, published 2025)
Read-outs that look alike come from different tables or passages of the source.

How the values were obtained:
K. pneumoniae ATCC 10031 = experiment: Microbroth dilution MIC (CLSI); assay type: cell-based; settings: Klebsiella pneumoniae, ATCC10031
Method: (§1) The chemical entities described in the present invention were assessed for their antimicrobial activity using a microbroth dilution assay as recommended by the CLSI (Methods for Dilution Antimicrobial Susceptibility Tests for Bacteria That Grow Aerobically, and Methods for Antimicrobial Susceptibility Testing of Anaerobic Bacteria, Clinical and Laboratory Standards Institute, Document M07-A8, and M11-A8, Wayne, PA 19087, USA, 2012.). Compounds were dissolved by using 100% DMSO. Serial two-fold dilutions of each compound were made by using 100% DMSO as the diluent.
(§2) A library of Gram-negative and Gram-positive microbes and their drug- and multidrug-resistant variants were employed as test organisms. The MIC (minimum inhibitory concentration) was determined as the lowest concentration of an individual drug that lead to no visible growth.

A. baumannii ATCC 17978 = experiment: Microbroth dilution MIC (CLSI); assay type: cell-based; settings: Acinetobacter baumannii, ATCC17978
Method: as §1, §2

[1] = test system: E. spp. cloacae ATCC 13047; experiment: Microbroth dilution MIC (CLSI); assay type: cell-based; settings: Enterobacter cloacae, ATCC13047
Method: as §1, §2

E. faecalis ATCC 29212 = experiment: Microbroth dilution MIC (CLSI); assay type: cell-based; settings: Enterococcus faecalis, ATCC29212
Method: as §1, §2

E. faecium ATCC 700221 = experiment: Microbroth dilution MIC (CLSI); assay type: cell-based; settings: Enterococcus faecium, ATCC700221
Method: as §1, §2

E. coli ATCC 25922 = experiment: Microbroth dilution MIC (CLSI); assay type: cell-based; settings: Escherichia coli, ATCC25922
Method: as §1, §2

P. aeruginosa ATCC 27853 = experiment: Microbroth dilution MIC (CLSI); assay type: cell-based; settings: Pseudomonas aeruginosa, ATCC27853
Method: as §1, §2

[2] = test system: S. aureus ATCC 700699 (VISA); experiment: Microbroth dilution MIC (CLSI); assay type: cell-based; settings: Staphylococcus aureus
Method: as §1, §2

S. aureus ATCC 29213 = experiment: Microbroth dilution MIC (CLSI); assay type: cell-based; settings: Staphylococcus aureus, ATCC29213
Method: as §1, §2

[3] = test system: S. aureus ATCC 43300 (MRSA); experiment: Microbroth dilution MIC (CLSI); assay type: cell-based; settings: Staphylococcus aureus
Method: as §1, §2

E. coli DNA gyrase = target: T1, E. coli DNA gyrase (Escherichia coli, UniProt P0AES6); experiment: biochemical
T1 construct: purchased Inspiralis
Method: (§3) Inhibitory activities for compounds of the present invention were determined on E. coli and S. aureus DNA gyrase and topoisomerase IV in an assay from Inspiralis on streptavidin-coated 96-well microtiter plates from Thermo scientific Pierce. […] After washing off the unbound oligonucleotide, the enzyme test was performed. […] Reaction solutions were incubated at 37° C. for 30 min. After that, the TF buffer (50 mM NaOAc with pH 5.0, 50 mM NaCl and 50 mM MgCl2) was added to terminate the enzymatic reaction. After additional incubation for 30 min at rt, during which biotin-oligonucleotide-plasmid triplex was formed, the unbound plasmid was washed off using TF buffer and SybrGOLD in T10 buffer (10 mM Tris HCl with pH 8.0 and 1 mM EDTA) was added. […] GraphPad Prism 6.0 software was used to calculate the IC50 values. The result is given as the average value of three independent measurements. […] Chemoth.

S. aureus DNA gyrase = target: T2, S. aureus DNA gyrase (Staphylococcus aureus, UniProt P0A0K8); experiment: biochemical
T2 construct: purchased Inspiralis
T2 sequence (P20831 whole entry): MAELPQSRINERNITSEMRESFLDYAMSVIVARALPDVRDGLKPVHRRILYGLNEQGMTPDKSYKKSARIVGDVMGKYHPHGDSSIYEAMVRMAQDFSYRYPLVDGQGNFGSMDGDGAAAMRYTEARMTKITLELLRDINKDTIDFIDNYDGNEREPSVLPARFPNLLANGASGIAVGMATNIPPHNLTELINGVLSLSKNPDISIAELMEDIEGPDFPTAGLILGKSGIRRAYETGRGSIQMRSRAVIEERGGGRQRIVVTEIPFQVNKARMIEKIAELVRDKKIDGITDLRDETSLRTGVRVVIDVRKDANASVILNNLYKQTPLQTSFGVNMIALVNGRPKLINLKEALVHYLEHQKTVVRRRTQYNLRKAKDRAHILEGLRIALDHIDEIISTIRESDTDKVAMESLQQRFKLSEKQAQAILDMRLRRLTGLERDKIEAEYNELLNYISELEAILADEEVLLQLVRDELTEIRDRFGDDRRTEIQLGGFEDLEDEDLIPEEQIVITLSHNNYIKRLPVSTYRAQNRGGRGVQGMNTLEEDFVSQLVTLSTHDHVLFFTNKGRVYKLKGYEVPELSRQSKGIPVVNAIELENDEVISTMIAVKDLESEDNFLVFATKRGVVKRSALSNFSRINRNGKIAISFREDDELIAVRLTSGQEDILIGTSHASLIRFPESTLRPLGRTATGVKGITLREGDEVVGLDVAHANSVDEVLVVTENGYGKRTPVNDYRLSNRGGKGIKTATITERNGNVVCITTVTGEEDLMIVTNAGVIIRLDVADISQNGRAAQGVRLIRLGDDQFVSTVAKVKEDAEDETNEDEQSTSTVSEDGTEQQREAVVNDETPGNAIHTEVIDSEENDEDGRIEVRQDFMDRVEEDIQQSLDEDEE
T2 sequence (P0A0K8 whole entry): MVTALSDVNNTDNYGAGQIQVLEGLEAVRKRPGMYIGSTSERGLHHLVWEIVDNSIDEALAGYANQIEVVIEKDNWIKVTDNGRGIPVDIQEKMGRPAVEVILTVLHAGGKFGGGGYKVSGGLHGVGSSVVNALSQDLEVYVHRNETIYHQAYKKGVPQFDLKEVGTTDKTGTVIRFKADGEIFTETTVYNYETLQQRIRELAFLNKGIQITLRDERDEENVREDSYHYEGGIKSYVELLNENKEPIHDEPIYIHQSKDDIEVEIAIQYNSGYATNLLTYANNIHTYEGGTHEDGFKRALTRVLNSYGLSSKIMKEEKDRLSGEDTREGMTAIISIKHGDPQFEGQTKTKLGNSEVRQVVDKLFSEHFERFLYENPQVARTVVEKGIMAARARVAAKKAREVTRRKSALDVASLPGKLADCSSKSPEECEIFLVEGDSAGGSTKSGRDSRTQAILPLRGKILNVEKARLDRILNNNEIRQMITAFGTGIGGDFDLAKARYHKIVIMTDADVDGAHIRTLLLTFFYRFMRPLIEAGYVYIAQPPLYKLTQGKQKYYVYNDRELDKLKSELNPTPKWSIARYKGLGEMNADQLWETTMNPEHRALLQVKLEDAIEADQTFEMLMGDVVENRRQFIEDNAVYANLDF
Method: as §3

E. coli topoisomerase IV = target: T3, E. coli topoisomerase IV (Escherichia coli, UniProt P20083); experiment: biochemical
T3 construct: purchased Inspiralis
T3 sequence (P0AFI2 whole entry): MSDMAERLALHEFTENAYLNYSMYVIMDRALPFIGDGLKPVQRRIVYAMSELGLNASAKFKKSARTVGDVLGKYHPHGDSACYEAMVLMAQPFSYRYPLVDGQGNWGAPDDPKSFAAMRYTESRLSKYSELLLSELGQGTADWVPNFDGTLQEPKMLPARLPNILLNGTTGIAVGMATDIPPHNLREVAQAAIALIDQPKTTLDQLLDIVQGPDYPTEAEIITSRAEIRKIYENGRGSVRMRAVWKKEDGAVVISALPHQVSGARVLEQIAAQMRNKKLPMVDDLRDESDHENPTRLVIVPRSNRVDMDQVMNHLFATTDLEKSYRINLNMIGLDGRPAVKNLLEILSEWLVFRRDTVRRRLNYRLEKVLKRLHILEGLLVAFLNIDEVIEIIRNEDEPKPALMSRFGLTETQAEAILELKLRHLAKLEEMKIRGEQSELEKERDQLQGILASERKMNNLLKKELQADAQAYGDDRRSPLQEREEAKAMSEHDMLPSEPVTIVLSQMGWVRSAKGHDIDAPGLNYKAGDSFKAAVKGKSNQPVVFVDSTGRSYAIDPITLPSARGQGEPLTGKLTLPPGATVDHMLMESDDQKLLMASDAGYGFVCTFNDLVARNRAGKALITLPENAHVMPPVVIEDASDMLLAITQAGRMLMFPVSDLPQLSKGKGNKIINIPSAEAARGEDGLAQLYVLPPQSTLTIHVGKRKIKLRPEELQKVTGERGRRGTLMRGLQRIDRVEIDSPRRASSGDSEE
T3 sequence (P20083 whole entry): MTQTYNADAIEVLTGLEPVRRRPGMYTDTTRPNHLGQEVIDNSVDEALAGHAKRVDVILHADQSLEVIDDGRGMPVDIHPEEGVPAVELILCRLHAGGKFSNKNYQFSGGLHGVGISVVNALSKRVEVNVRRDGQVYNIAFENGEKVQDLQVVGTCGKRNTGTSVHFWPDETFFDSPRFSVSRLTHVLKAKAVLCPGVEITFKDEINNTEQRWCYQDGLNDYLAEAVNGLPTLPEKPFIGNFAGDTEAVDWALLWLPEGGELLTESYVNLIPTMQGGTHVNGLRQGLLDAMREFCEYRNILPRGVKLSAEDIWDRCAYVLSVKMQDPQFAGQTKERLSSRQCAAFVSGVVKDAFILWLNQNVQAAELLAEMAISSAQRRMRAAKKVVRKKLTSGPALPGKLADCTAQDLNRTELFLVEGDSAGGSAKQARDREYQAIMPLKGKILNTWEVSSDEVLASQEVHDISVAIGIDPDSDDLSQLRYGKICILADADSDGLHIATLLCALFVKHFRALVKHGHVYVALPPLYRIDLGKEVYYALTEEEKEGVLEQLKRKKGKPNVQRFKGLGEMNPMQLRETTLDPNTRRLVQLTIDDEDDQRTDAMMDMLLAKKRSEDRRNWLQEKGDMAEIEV
Method: Inhibitory activities for compounds of the present invention were determined on E. coli and S. aureus DNA gyrase and topoisomerase IV in an assay from Inspiralis on streptavidin-coated 96-well microtiter plates from Thermo scientific Pierce. […] After washing off the unbound oligonucleotide, the enzyme test was performed. […] Reaction solutions were incubated at 37° C. for 30 min. After that, the TF buffer (50 mM NaOAc with pH 5.0, 50 mM NaCl and 50 mM MgCl2) was added to terminate the enzymatic reaction. After additional incubation for 30 min at rt, during which biotin-oligonucleotide-plasmid triplex was formed, the unbound plasmid was washed off using TF buffer and SybrGOLD in T10 buffer (10 mM Tris HCl with pH 8.0 and 1 mM EDTA) was added. […] Initial screening was done at 100 or 10 nM concentration of inhibitors against E. coli DNA gyrase or 1 μM or 100 nM concentration against S. aureus DNA gyrase and E. coli and S. aureus topo IV. […] GraphPad Prism 6.0 software was used to calculate the IC50 values. The result is given as the average value of three independent measurements. […] Chemoth.

[4] = K. pneumoniae ATCC 10031, read-out: MIC
[5] = A. baumannii ATCC 17978, read-out: MIC
[6] = E. spp. cloacae ATCC 13047, read-out: MIC
[7] = E. faecalis ATCC 29212, read-out: MIC
[8] = E. faecium ATCC 700221, read-out: MIC
[9] = E. coli ATCC 25922, read-out: MIC
[10] = P. aeruginosa ATCC 27853, read-out: MIC
[11] = S. aureus ATCC 700699 (VISA), read-out: MIC
[12] = S. aureus ATCC 29213, read-out: MIC
[13] = S. aureus ATCC 43300 (MRSA), read-out: MIC
[14] = E. coli DNA gyrase, read-out: IC50
[15] = S. aureus DNA gyrase, read-out: IC50
[16] = E. coli topo IV, read-out: IC50

| Structure (SMILES) | MIC (K. pneumoniae ATCC 10031; [4]) [µg/mL] | MIC (A. baumannii ATCC 17978; [5]) [µg/mL] | MIC [1, 6] [µg/mL] | MIC (E. faecalis ATCC 29212; [7]) [µg/mL] | MIC (E. faecium ATCC 700221; [8]) [µg/mL] | MIC (E. coli ATCC 25922; [9]) [µg/mL] | MIC (P. aeruginosa ATCC 27853; [10]) [µg/mL] | MIC [2, 11] [µg/mL] | MIC (S. aureus ATCC 29213; [12]) [µg/mL] | MIC [3, 13] [µg/mL] | IC50 (E. coli DNA gyrase; [14]) [nM] | IC50 (S. aureus DNA gyrase; [15]) [nM] | IC50 (E. coli topoisomerase IV; [16]) [nM] | other results |
| --- | --- | --- | --- | --- | --- | --- | --- | --- | --- | --- | --- | --- | --- | --- |
| Cc1[nH]c(C(=O)Nc2ccc(-c3noc(=O)[nH]3)cc2N2CCCC(N)C2)c(Cl)c1Cl.Cl (centres unmarked) [Example 2, 1-(2-(3,4-Dichloro-5-methyl-1H-pyrrole-2-carboxamido)-5-(5-oxo-4,5-dihydro-1,2,4-oxadiazol-3-yl)phenyl)piperidin-3-aminium chloride] | 16 | > 64 | > 64 | 8 | 8 | > 64 | > 64 | > 64 | > 64 | > 64 | 2.49 | 55.8 | 145 | – |
| Cc1[nH]c(C(=O)Nc2ccc(-c3noc(=O)[nH]3)cc2NC2CCNCC2)c(Cl)c1Cl.Cl [Example 4, 4-((2-(3,4-Dichloro-5-methyl-1H-pyrrole-2-carboxamido)-5-(5-oxo-4,5-dihydro-1,2,4-oxadiazol-3-yl)phenyl)amino)piperidin-1-ium chloride] | – | – | – | – | – | – | – | – | – | – | – | – | – | MIC (K. pneumoniae ATCC 10031): > 64 µg/mL; MIC (A. baumannii ATCC 17978): > 64 µg/mL; MIC [1]: > 64 µg/mL; MIC (E. faecalis ATCC 29212): > 64 µg/mL; MIC (E. faecium ATCC 700221): > 64 µg/mL; MIC (E. coli ATCC 25922): > 64 µg/mL; MIC (P. aeruginosa ATCC 27853): > 64 µg/mL; MIC [2]: > 64 µg/mL; MIC (S. aureus ATCC 29213): > 64 µg/mL; MIC [3]: > 64 µg/mL; IC50 (E. coli DNA gyrase): 9.66 nM; IC50 (S. aureus DNA gyrase): 249 nM; IC50 (E. coli topoisomerase IV): 1180 nM |
| Cc1[nH]c(C(=O)Nc2ccc(-n3nn[nH]c3=O)cc2N2CC[C@H](N)C2)c(Cl)c1Cl.Cl [Example 22, (S)-1-(2-(3,4-Dichloro-5-methyl-1H-pyrrole-2-carboxamido)-5-(5-oxo-4,5-dihydro-1H-tetrazol-1-yl)phenyl)pyrrolidin-3-aminium chloride] | ≥ 32 | ≥ 32 | ≥ 32 | > 64 | ≥ 32 | ≥ 32 | ≥ 32 | > 64 | ≥ 32 | ≥ 32 | 4.9 | 121 | – | remaining activity at 1 µM (E. coli topoisomerase IV; E. coli topo IV, 1 μM compound, read-out: RA (residual activity of the enzyme)): 97%; remaining activity at 10 µM (E. coli topoisomerase IV; E. coli topo IV, 10 μM compound, read-out: RA (residual activity of the enzyme)): 26% |
| Cc1[nH]c(C(=O)Nc2ccc(-c3noc(=O)[nH]3)cc2N2CCCC(CN)C2)c(Cl)c1Cl.Cl (centres unmarked) [Example 3, (1-(2-(3,4-Dichloro-5-methyl-1H-pyrrole-2-carboxamido)-5-(5-oxo-4,5-dihydro-1,2,4-oxadiazol-3-yl)phenyl)piperidin-3-yl)methanaminium chloride] | 2 | > 64 | > 64 | 0.25 | 2 | > 64 | > 64 | 2 | 4 | 4 | 3.19 | 24.1 | 41.8 | – |
